The values that follow come from ChEMBL document CHEMBL5260847, “Current scenario of indole derivatives with potential anti-drug-resistant cancer activity” (Eur J Med Chem, 2020).

In series [1] the test system is PC-3. Description: Cytotoxicity activity against human PC-3 cells assessed as reduction in cell viability by MTT assay. Format: functional, cell-based.
Series [2] has as its system CWR22R. Put plainly: Cytotoxicity activity against human 22Rv1 assessed as reduction in cell viability by MTT assay. Format: functional, cell-based.
Series [3] deals with H69AR. Put plainly: Antiproliferative activity against multi-drug resistant human NCI-H69AR assessed as reduction in cell viability. Format: functional, cell-based.
Series [4] has as its system IEC-6. Description: Antiproliferative activity against rat IEC-6 cells assessed as reduction in cell viability measured after 48 hrs by MTT assay. The format is functional, cell-based. As to conditions: IEC-6, 48 h.
For series [5], the system named is HT-29. Description: Antiproliferative activity against human HT-29 cells assessed as reduction in cell viability celltiter-Glo assay. The format is functional, cell-based.
In series [6] the test system is A549. Put plainly: Antiproliferative activity against drug-sensitive human A549 cells assessed as reduction in cell viability by MTT assay. Format: functional, cell-based.
Series [7] relates to ZR-75-1. Put plainly: Antiproliferative activity against human ZR-75-1 cells assessed as reduction in cell viability celltiter-Glo assay. Format: functional, cell-based.
Series [8] is described as follows: Selectivity index, ratio of IC50 for antiproliferative activity against human MCF-10A cells to IC50 for antiproliferative activity against […] cells by MTT assay. The format is toxicity, cell-based. Conditions: MCF-10A cells and IEC-6 cells, read-out: Selectivity Index.
The subject of series [9] is H69AR. Put plainly: Antiproliferative activity against multidrug resistant human NCI-H69AR assessed as inhibition of cell proliferation by MTT assay. The format is functional, cell-based.
The subject of series [10] is A2780. Put plainly: Antiproliferative activity against human A2780 cells assessed as inhibition of cell proliferation measured after 24 hrs by MTT assay. Format: functional, cell-based. Conditions: A2780, 24 h.
The test system of series [11] is HCT-15. Description: Antiproliferative activity against multidrug-resistant human HCT-15 cells assessed as reduction in cell viability. Format: functional, cell-based.
Series [12] deals with HCT-116. Description: Antiproliferative activity against multi-drug - resistant human HCT-116 cells assessed as reduction in cell viability. Format: functional, cell-based.
Series [13] relates to KB. Put plainly: Cytotoxicity against human KB cells assessed as reduction in cell viability measured after 48 hrs by MTT assay. Format: functional, cell-based.
The test system of series [14] is HepG2. Put plainly: Anticancer activity against human HepG2 cells assessed as inhibition of cell growth. Format: functional, cell-based.
Series [15] deals with MCF7. Put plainly: Cytotoxicity activity against human MCF7 cells assessed as reduction in cell viability incubated for 72 hrs by MTT assay. The format is functional, cell-based. Conditions: MCF7, 72 h.
For series [16], the system named is A549. Put plainly: Cytotoxicity activity against human A549 cells assessed as reduction in cell viability incubated for 72 hrs by MTT assay. Format: functional, cell-based. As to conditions: A549, 72 h.
The test system of series [17] is HT-29. Put plainly: Cytotoxicity activity against human HT-29 cells assessed as reduction in cell growth measured after 72 hrs by MTT assay. Format: functional, cell-based. Conditions: HT-29, 72 h.
Series [18] deals with HepG2. Description: Cytotoxicity activity against human HepG2 cells assessed as reduction in cell viability incubated for 72 hrs by MTT assay. The format is functional, cell-based. As to conditions: HepG2, 72 h.
Series [19] concerns HeLa. Put plainly: Antiproliferative activity against human Hela cells assessed as reduction in cell viability measured after 48 hrs by MTT assay. The format is functional, cell-based.
For series [20], the system named is K562. Description: Cytotoxicity against human K562 cells assessed as reduction in cell viability incubated for 72 hrs by MTT assay. Format: functional, cell-based. As to conditions: K562, 72 h.
Series [21] has as its system HeLa. Description: Anticancer activity against human HeLa cells assessed as inhibition of cell growth. The format is functional, cell-based.
Series [22] has as its system KB. Put plainly: Antiproliferative activity against human KB cells assessed as reduction in cell growth incubated for 2 days by MTT assay. The format is functional, cell-based. As to conditions: 48 h.
Series [23] has as its system K562/A02. Put plainly: Antiproliferative activity against human K562/A02 cells assessed as reduction in cell viability measured after 2 days by MTT assay. The format is functional, cell-based. Conditions: K562/A02, 48 h.
The nature of series [24]: Cytotoxicity activity against human U87MG.deltaEGFR cells assessed as reduction in cell viability incubated for 72 hrs by MTT assay. The format is functional, cell-based.
Series [25] has as its system LNCaP. Put plainly: Cytotoxicity activity against human LNCaP cells assessed as reduction in cell viability. The format is functional, cell-based.

On to `CC(=O)O[C@]1(C)CO[C@@]23CC[C@@]4(C)[C@@](O)(CC[C@H]5Cc6c([nH]c7cc(Cl)ccc67)[C@@]54C)C2=CC(=O)[C@@H]1O3`, for which the IC50 in series [1] is 4.86 µM; in series [2], 3.8 µM.
Turning to `O=C1Nc2ccc(Cl)cc2/C1=N/N=C/c1nc(-c2ccccc2)cs1`, the IC50 came to 16 µM in [3]; 8.98 µM in [4]; 7.25 µM in [5]; 10.1 µM in series [6]; 1.95 µM in series [7]; 16.6 µM in series [9]. In addition, in series [8], the selectivity ratio is 1.8.
On to `Fc1ccc(C2=NCc3c([nH]c4ccccc34)S2)cc1`, for which the IC50 in series [10] turned out to be 9.3 µM.
In the case of `[O-][n+]1onc2c3cc[nH]c3ccc21`, the IC50 in [11] came to 0.69 µM; in series [12], 2.06 µM.
As for `CC[C@@]12CCCN3CCc4c(n(c5ccccc45)[C@H](c4ccc5c(c4)[C@@]46CCN7CCC[C@]8(CC[C@]4(C[C@@H]8C(=O)OC)N5)[C@H]76)C1)[C@H]32`, in [13], the 50% inhibitory concentration (IC50) came out at 7.8 µM.
With `CO/N=C1\C(=O)N(Cc2cn(CCOCCN3C(=O)/C(=N/OC)c4ccccc43)nn2)c2ccccc21`, the IC50 in [14] is 0.18 µM.
With `CCC1CN(C)[C@H]2Cc3c([nH]c4ccccc34)[C@@H](n3c4c(c5c(OC)c([C@H]6C[C@H]7[C@H](CC)CN(C)[C@@H](Cc8c6[nH]c6ccccc86)[C@H]7C(=O)OC)ccc53)CCN3C[C@H]5CC[C@H]4[C@H]3[C@@H]5CC)C[C@@H]1[C@@H]2C(=O)OC` (single isomer, unassigned), the IC50 in series [15] amounted to 11.3 µM; in series [16], 10.2 µM; in [17] it was 11.4 µM; in series [18], 12.6 µM.
As for `O=Cc1c[nH]c2ccccc12` [3-FORMYLINDOLE], the IC50 in series [19] was over 100 µM.
For the compound `COc1cccc2c1C(=O)c1c(O)c3c(c(O)c1C2=O)C[C@@](O)(C(=O)CO)C[C@@H]3O[C@H]1C[C@H](N)[C@H](O)[C@H](C)O1` [DOXORUBICIN], the IC50 was over 168 µM in series [20] and 1.48 µM in series [17].
As for `COc1cc([C@@H]2c3cc4c(cc3[C@@H](O[C@@H]3O[C@@H]5CO[C@@H](C)O[C@H]5[C@H](O)[C@H]3O)[C@H]3COC(=O)[C@H]23)OCO4)cc(OC)c1O` [ETOPOSIDE], the IC50 is over 50 µM in series [21], 1.02 µM in [22], 6.94 µM in [14] and 10.6 µM in [23].
As for `COC(=O)[C@H]1[C@H]2C[C@@H]3c4[nH]c5cc(OC)ccc5c4CCN3C[C@H]2C[C@@H](OC(=O)c2cc(OC)c(OC)c(OC)c2)[C@@H]1OC` [RESERPINE], the IC50 in [24] was 9.15 µM.
Take `CC[C@]1(O)C[C@H]2CN(CCc3c([nH]c4ccccc34)[C@@](C(=O)OC)(c3cc4c(cc3OC)N(C=O)[C@H]3[C@@](O)(C(=O)OC)[C@H](OC(C)=O)[C@]5(CC)C=CCN6CC[C@]43[C@@H]65)C2)C1` [VINCRISTINE]: the IC50 in [25] was determined as 2.6 µM.
